Experiment: bromfenac in solution in the flowable mucoadhesive polymer carrier
Format: physicochemical
Conditions: by weight of the composition
Text: As used herein the term “retained in or carried with” or “retaining or carrying” embraces generally all ways that bromfenac can be associated with the flowable mucoadhesive polymer. For example, bromfenac can be in aqueous solution dispersed throughout the polymer. A bromfenac concentration of up to about 0.36% will be in solution mixed with or dispersed throughout the flowable mucoadhesive polymer carrier. Bromfenac can also be in suspension with the polymer depending on its concentration. For example, when bromfenac is used in an amount more than about 0.36% by weight of the composition, some of the bromfenac can be in suspension with the polymer carrier while an amount of up to about […] of bromfenac will still be in solution and mixed with the polymer carrier.

SMILES: Nc1c(CC(=O)O)cccc1C(=O)c1ccc(Br)cc1 [bromfenac]
- bromfenac concentration in solution mixed with or dispersed throughout the polymer carrier: up to 0.36%

Reference: patent US20130023575A1, “COMPOSITIONS AND METHODS FOR THE TREATMENT OF OCULAR SURFACE ALLERGIES” (priority 2011, published 2013)
